The values that follow are results of earlier work, collected in patent US20240238221A1, “[…] TREATING NEUROPATHIC PAIN IN COVID-19 PATIENTS” (Grünenthal GmbH, priority 2021, published 2024).

Molecules are shown by their SMILES.

The conditions of data set [1]: in the investigated dose ranges; vs. morphine, oxycodone or hydromorphone.
Data set [2] has as its system CYP450.
Data set [3] concerns serotonin reuptake. The conditions noted are these: unlike tramadol.
The conditions of data set [4]: at analgesic doses vs. Morphine.
Data set [5] has as its system UGT1A6, UGT1A9 and UGT2B7. The note with it: mediated via UGT mainly UGT1A6, UGT1A9 and UGT2B7 isoforms.

For `CC[C@@H](c1cccc(O)c1)[C@@H](C)CN(C)C` [Tapentadol], the analgesic efficacy result in data set [1] is “comparable to that of typical strong opioids”. Further, the “risk of drug-drug interactions at the CYP450 level” value in data set [2] is listed as “low risk”. For the same compound, the serotonin reuptake inhibition result in data set [3] is given as “only weak serotonin reuptake inhibition”. In addition, in data set [4], the immunosuppressive activity result is “lower immunosuppressive activity”. Also, in data set [5], the major elimination pathway entry is listed as “conjugation with glucuronic acid”.
